One assay addresses Transient receptor potential cation channel subfamily V member 1 (Rattus norvegicus, UniProt O35433). Kind of assay: Ca2+ Influx Functional Assay for the Determination of in Vitro Activity. The settings on record: pH 7.4; 22 °C. As for the experimental part:
(§1) The functional antagonist activity of compounds at the TRPV1 receptor was determined with a Ca2+ influx assay by measuring the effect on capsaicin (0.05 uM) evoked increase in intracellular Ca2+ levels using cells stably expressing recombinant human TRPV1. All compounds were tested over an 11-point half-log concentration range. The fluorescent Ca2+ chelating dye fluo-4 was used as an indicator of the relative levels of Ca2+ in a 96-well format using a fluorescence imaging plate reader. Fluorescence readings were made at 1-5 s intervals over the 240 s course of the experimental run. The peak increase in relative fluorescence units was calculated and expressed as a percentage of the 0.05 uM capsaicin (control) response. Curve fits of the data were solved using a four-parameter logistic Hill equation in GraphPad Prism, and IC50 values were calculated.
Chain of Transient receptor potential cation channel subfamily V member 1 (Rattus norvegicus, UniProt O35433) (O35433 whole entry): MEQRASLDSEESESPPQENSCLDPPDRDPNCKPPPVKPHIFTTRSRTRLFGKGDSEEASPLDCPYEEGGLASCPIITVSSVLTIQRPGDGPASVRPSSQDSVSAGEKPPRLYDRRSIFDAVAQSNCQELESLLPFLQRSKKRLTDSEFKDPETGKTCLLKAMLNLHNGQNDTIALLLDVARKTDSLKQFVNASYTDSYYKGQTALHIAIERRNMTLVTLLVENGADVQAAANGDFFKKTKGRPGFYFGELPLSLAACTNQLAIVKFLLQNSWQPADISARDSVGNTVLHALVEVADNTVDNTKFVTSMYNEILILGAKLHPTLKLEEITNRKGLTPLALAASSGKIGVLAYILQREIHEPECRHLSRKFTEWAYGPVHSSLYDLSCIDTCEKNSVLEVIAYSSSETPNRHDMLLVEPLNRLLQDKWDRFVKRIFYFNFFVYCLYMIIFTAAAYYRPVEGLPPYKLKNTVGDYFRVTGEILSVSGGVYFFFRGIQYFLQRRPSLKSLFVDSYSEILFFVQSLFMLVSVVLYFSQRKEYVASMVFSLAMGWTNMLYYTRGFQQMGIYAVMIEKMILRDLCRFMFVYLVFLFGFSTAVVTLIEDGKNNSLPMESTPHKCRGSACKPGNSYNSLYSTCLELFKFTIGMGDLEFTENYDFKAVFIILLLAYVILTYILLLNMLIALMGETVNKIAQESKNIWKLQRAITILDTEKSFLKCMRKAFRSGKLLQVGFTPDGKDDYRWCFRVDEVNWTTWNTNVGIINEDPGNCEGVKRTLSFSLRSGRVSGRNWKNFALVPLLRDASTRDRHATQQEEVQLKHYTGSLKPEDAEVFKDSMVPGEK
Take `O=C(NCc1ccc(C(F)(F)F)cc1)Nc1cccc2cnccc12` [1-isoquinolin-5-yl-3-{[4-(trifluoromethyl)phenyl]methyl}urea]: the EC50 (as a rule, the concentration at which the effect is half-maximal) worked out at 24 nM.

The target in another assay is Transient receptor potential cation channel subfamily V member 1 (Homo sapiens, UniProt Q8NER1). Described as above. The following applies: pH 7.4; 22 °C. On the procedure: as §1
Chain of Transient receptor potential cation channel subfamily V member 1 (Homo sapiens, UniProt Q8NER1) (Q8NER1 whole entry): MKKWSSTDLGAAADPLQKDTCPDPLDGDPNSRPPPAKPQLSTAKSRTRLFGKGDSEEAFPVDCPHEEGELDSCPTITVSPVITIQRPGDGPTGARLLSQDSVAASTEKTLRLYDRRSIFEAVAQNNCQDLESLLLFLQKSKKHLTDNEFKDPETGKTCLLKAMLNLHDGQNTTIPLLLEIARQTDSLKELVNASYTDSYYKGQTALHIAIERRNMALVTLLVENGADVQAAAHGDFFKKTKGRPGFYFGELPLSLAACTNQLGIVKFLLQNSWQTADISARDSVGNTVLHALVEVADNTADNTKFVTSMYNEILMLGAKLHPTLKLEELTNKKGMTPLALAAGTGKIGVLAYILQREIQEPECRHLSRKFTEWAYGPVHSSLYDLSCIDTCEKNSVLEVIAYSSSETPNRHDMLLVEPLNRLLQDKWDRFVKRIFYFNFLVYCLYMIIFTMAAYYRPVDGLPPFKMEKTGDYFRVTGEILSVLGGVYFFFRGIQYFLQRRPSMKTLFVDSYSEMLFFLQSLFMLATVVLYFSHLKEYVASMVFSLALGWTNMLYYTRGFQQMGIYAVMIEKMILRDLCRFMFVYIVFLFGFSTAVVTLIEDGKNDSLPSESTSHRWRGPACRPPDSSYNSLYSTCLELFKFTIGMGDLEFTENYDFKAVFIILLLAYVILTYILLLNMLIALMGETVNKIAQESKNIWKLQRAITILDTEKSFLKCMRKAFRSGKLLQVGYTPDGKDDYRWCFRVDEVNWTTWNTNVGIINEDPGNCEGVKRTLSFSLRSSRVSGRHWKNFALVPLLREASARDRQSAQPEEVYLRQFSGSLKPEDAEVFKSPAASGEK
In turn, `O=C(NCCc1ccc(C(F)(F)F)cc1)Nc1cccc2cnccc12` returned an EC50 of 19 nM.
Still for that read-out and setting: in the case of `O=C(NCCc1cccc(C(F)(F)F)c1)Nc1cccc2cnccc12` it was 20 nM.
Take `O=C(NCc1ccc(C(F)(F)F)cc1)Nc1cccc2cnccc12` [1-isoquinolin-5-yl-3-{[4-(trifluoromethyl)phenyl]methyl}urea]: the response was half-maximal at 4 nM (EC50).
The same measure, in the same setting: in the case of `CSc1cccc(NC(=O)Nc2cccc3ccc(O)cc23)c1` [3-(7-hydroxynaphthalen-1-yl)-1-[3-(methylsulfanyl)phenyl]urea] it was 22 nM.
On the same count and under the same terms, the result for `O=C(NCc1cccc(C(F)(F)F)c1)Nc1cccc2cnccc12` [3-isoquinolin-5-yl-1-{[3-(trifluoromethyl)phenyl]methyl}urea] reads 51 nM.

The values above are taken from BindingDB's records for doi:10.1021/jm0492958 (Abbott Laboratories, 2005).
